From patent US20260259169A1, “BETA-LACTAMASE SUBSTRATE COMPOUNDS AND ELECTROCHEMICAL DETECTION METHODS USING THEM” (priority 2023, published 2026)

How the values were obtained:
[1] = system: AmpC positive clinical strains; assay: Reactivity with AmpC positive clinical strains, amperometric; assay type: cell-based, 11 different species; conditions: 30 strains, colonies in TPTZ buffer, 10 minutes at 37° C.
Protocol: The reactivities of HMRZ-86 and the CF3 (β)/4-cyanophenyl (R) [formula (I)] compounds for enzymes from Ambler classes C (AmpC cephalosporinases) were analyzed with AmpC positive clinical strains previously characterized by sequencing. These strains correspond to 11 different species, 24 different enzymes and 2 mechanisms of enzyme production [HCASE (hyperproductive) and CASEP (plasmid mediated (See Table 2) Table 2 represents the list of AmpC (Ambler class C cephalosporinases) positive clinical strains tested with the HMRZ-86 and the CF3 (β)/4-cyanophenyl (R) [formula (I)] compounds.
Colonies from 30 AmpC positive clinical strains collected from solid culture medium were diluted in a standard TPTZ buffer. […] A negative clinical strain and an positive one (CTX-M) were analyzed as […].

KPC-31 = KPC-31 (Klebsiella pneumoniae, UniProt Q9F663, D178Y/H272Y); assay: Reactivity with recombinant enzyme, amperometric; assay type: biochemical; conditions: class A carbapenemase, protein, CF3 compound 2.4 mM, HMRZ-86 1.2 mM, 10 minutes at 37° C.
IMP-3 = assay: Reactivity with recombinant enzyme, amperometric; assay type: biochemical; conditions: class B metallo-beta-lactamase, protein; CF3 compound 2.4 mM, HMRZ-86 1.2 mM; 10 minutes at 37° C.
[2] = system: bacteria strains producing the carbapenemase KPC type; assay: Amperometric detection in blood culture; assay type: cell-based; conditions: CF3 6.0 mM, HMRZ-86 1.2 mM
Protocol: (§1) The beta-lactamase with group β being CF3 (6.0 mM), as well as the reference HMRZ-86 (1.2 mM) were also tested with blood cultures comprising bacteria strains producing the carbapenemase KPC type, the metallo-beta-lactamase VIM type and the metallo-beta-lactamase NDM type, as well as a blood culture comprising no bacteria strains producing beta-lactamases (negative control ATCC).

CTX-M-14 = CTX-M-14 (Escherichia coli, UniProt Q9L5C7); assay: Reactivity with recombinant enzyme, amperometric; assay type: biochemical; conditions: class A ESBL, protein; CF3 compound 2.4 mM, HMRZ-86 1.2 mM; 10 minutes at 37° C.
IMP-14 = assay: Reactivity with recombinant enzyme, amperometric; assay type: biochemical; conditions: class B metallo-beta-lactamase, protein; CF3 compound 2.4 mM, HMRZ-86 1.2 mM; 10 minutes at 37° C.
IMP-4 = assay: Reactivity with recombinant enzyme, amperometric; assay type: biochemical; conditions: class B metallo-beta-lactamase, protein; CF3 compound 2.4 mM, HMRZ-86 1.2 mM; 10 minutes at 37° C.
IMP-22 = assay: Reactivity with recombinant enzyme, amperometric; assay type: biochemical; conditions: class B metallo-beta-lactamase, protein; CF3 compound 2.4 mM, HMRZ-86 1.2 mM; 10 minutes at 37° C.
OXA-213 = assay: Reactivity with recombinant enzyme, amperometric; assay type: biochemical; conditions: class D carbapenemase, protein; CF3 compound 2.4 mM, HMRZ-86 1.2 mM; 10 minutes at 37° C.
VIM-5 = assay: Reactivity with recombinant enzyme, amperometric; assay type: biochemical; conditions: class B metallo-beta-lactamase, protein; CF3 compound 2.4 mM, HMRZ-86 1.2 mM; 10 minutes at 37° C.
[3] = system: bacteria strains that produce VIM type; assay: Amperometric detection in blood culture; assay type: cell-based; conditions: CF3 6.0 mM, HMRZ-86 1.2 mM
Protocol: (§2) The possibility of the beta-lactamase substrate compounds to detect bacteria strains producing different beta-lactamases was tested for the reference HMRZ-86 of example 1 (at 1.2 mM) and the beta-lactamase substrate compound with R being 2-nitro-4-cyano of Example 1 (at 2.4 mM). […] Consequently, amperometric voltammetry of the negative control with ATCC should give an oxidation current of 0 nA for the measurement to be valid.
as §1

[4] = system: bacteria strains that produce NDM; assay: Amperometric detection in blood culture; assay type: cell-based; conditions: CF3 6.0 mM, HMRZ-86 1.2 mM
Protocol: as §2, §1

KPC-33 = KPC-33 (Klebsiella pneumoniae, UniProt Q9F663, D178Y); assay: Reactivity with recombinant enzyme, amperometric; assay type: biochemical; conditions: class A carbapenemase, protein; CF3 compound 2.4 mM, HMRZ-86 1.2 mM; 10 minutes at 37° C.
CTX-M-8 = assay: Reactivity with recombinant enzyme, amperometric; assay type: biochemical; conditions: class A ESBL, protein; CF3 compound 2.4 mM, HMRZ-86 1.2 mM; 10 minutes at 37° C.
KPC-3 = KPC-3 (Klebsiella pneumoniae, UniProt Q9F663, H272Y); assay: Reactivity with recombinant enzyme, amperometric; assay type: biochemical; conditions: class A carbapenemase, protein; CF3 compound 2.4 mM, HMRZ-86 1.2 mM; 10 minutes at 37° C.
OXA-143 = assay: Reactivity with recombinant enzyme, amperometric; assay type: biochemical; conditions: class D carbapenemase, protein; CF3 compound 2.4 mM, HMRZ-86 1.2 mM; 10 minutes at 37° C.
OXA-40 = assay: Reactivity with recombinant enzyme, amperometric; assay type: biochemical; conditions: class D carbapenemase, protein; CF3 compound 2.4 mM, HMRZ-86 1.2 mM; 10 minutes at 37° C.
IMP-18 = assay: Reactivity with recombinant enzyme, amperometric; assay type: biochemical; conditions: class B metallo-beta-lactamase, protein; CF3 compound 2.4 mM, HMRZ-86 1.2 mM; 10 minutes at 37° C.
KPC = KPC (Klebsiella pneumoniae, UniProt Q9F663); assay: Amperometric measurement of oxidation current with KPC in TPTZ buffer; assay type: biochemical; conditions: 30 minutes at 37° C.
Protocol: A medium comprising 1.2 mM of substrate in a succinate buffer of pH 5.5 was prepared for each of the 8 beta-lactamase substrate compounds (7 inventive ones and the HMRZ-86 reference one).
4 different samples to be analyzed were prepared, each comprising KPC as beta-lactamase in a standard 2,4,6-tri-2-pyridinyl-1,3,5-triazine (TPTZ) buffer but in different concentrations: 239.4, 59.85, 9.975 and 4.985 ng/ml (ng of KPC per mL of TPTZ buffer). The two first concentrations of KPC aim to determine the capacity of the derivative to detect the presence of beta-lactamase whereas the two lowest concentrations aim to address the limit of detection.
Each of the […] (in other words 32 combinations) and incubated for 30 minutes at 37° C. Next, an amperometric measurement was performed on all 32 of the incubated mediums, and the oxidation current was determined. The device used was a Metrohm Dropsens and the electrodes were Metrohm Dropsens SCPE 110 electrodes. The oxidation current is the maximum current value measured between 0.1 V and 0.5 V vs. Ag/AgCl.
To test the impact of the concentration of the beta-lactamase substrate compound on the possibility to detect beta-lactamases, a further medium comprising 2.4 mM of the beta-lactamase substrate compound with R being 2-nitro-4-cyanophenyl was prepared. […] The same four beta-lactamase concentrations as in Example 1 were tested (i.e. the same samples). The incubation and measurement were performed as in Example 1.
A medium comprising 6.0 mM of each substrate in a succinate buffer of pH 5.5 was prepared. 2 different samples to be analyzed were prepared, each comprising KPC as beta-lactamase type in a standard 2,4,6-tri-2-pyridinyl-1,3,5-triazine (TPTZ) buffer, but in different concentrations: 239.4 ng/ml and 59.85 ng/ml, respectively (ng of KPC per mL of TPTZ buffer). Each of the […] was added to each of the 2 mediums (in other words 6 combinations) and incubated for 30 minutes at 37° C. Next, an amperometric measurement was performed on all 6 of the incubated mediums, and the oxidation current was determined. The equipment used was the same as that of Example 1.

Structure (SMILES) | reactivity (detection) (IMP-3) | detection (oxidation current) [2] | reactivity (detection) (CTX-M-14) | reactivity (detection) (IMP-14) | reactivity (detection) (IMP-4) | reactivity (detection) (IMP-22) | reactivity (detection) (OXA-213) | reactivity (detection) (VIM-5) | detection (oxidation current) [3] | detection (oxidation current) [4] | reactivity (detection) (KPC-33) | reactivity (detection) (CTX-M-8) | reactivity (detection) (KPC-3) | reactivity (detection) (OXA-143) | reactivity (detection) (OXA-40) | reactivity (detection) (IMP-18) | other results
CC(C)(ON=C(C(=O)N[C@@H]1C(=O)N2C(C(=O)O)=C(C=Cc3ccc([N+](=O)[O-])cc3[N+](=O)[O-])CS[C@H]12)c1csc(N)n1)C(=O)O.O=C(O)C(F)(F)F [HMRZ-86, reference compound] | Detected | capable of detecting | Detected | Detected | Detected | Detected | Not detected | Detected | capable of detecting | do not detect | Detected | Detected | Detected | Detected | Not detected | Detected | AmpC positive clinical strains detected as positive ([1]; HMRZ-86 1.2 mM): 53.3%; reactivity (detection) (KPC-31): Detected; detection of the beta-lactamases (oxidation current): KPC concentrations detected (KPC; 1.2 mM substrate, succinate buffer pH 5.5, KPC 239.4, 59.85, 9.975 and 4.985 ng/ml): all 4 concentrations; detection of the beta-lactamase concentration of 9.975 ng/mL (KPC; 1.2 mM substrate, KPC 9.975 ng/mL): could detect
N#Cc1ccc(C=CC2=C(C(=O)O)N3C(=O)C(NC(=O)C(F)(F)F)C3SC2)cc1 (centres unmarked) [CF3] | Detected | capable of detecting | Detected | Detected | Detected | Detected | Detected | Detected | capable of detecting | do not detect | Detected | Detected | Detected | Detected | Detected | Detected | AmpC positive clinical strains detected as positive ([1]; substrate 2.4 mM): All; reactivity (detection) (KPC-31; listed as CF3/4-cyanophenyl): not detected; reactivity (detection) (KPC-31; listed as CF3/4-cyanostyryl): Not detected; detection of the lowest tested concentration of KPC (KPC; 6.0 mM substrate, KPC 59.85 ng/ml): capable to detect; detection of the highest concentration of KPC (KPC; 6.0 mM substrate, KPC 239.4 ng/ml): capable to detect
